Patent US20220073496A1, “NOVEL QUINOLINE DERIVATIVE INHIBITOR” (Nanjing Transthera Biosciences Co., Ltd., priority 2018, published 2022)

Tests used:
H1299 cell pMer = target: T1, H1299 cell pMer (Homo sapiens, UniProt Q12866); experiment: Inhibitory activity on the cell pMer (Western Blot); assay type: cell-based; settings: H1299 cells, compound 0.35, 1.1, 3.3, 10 nM, Human MerMab 200 ng/mL
T1 construct: The H1299 cells were inoculated in a 6-well plate; endogenous in cells; host or cells: H1299
T1 sequence (Q12866 21-999): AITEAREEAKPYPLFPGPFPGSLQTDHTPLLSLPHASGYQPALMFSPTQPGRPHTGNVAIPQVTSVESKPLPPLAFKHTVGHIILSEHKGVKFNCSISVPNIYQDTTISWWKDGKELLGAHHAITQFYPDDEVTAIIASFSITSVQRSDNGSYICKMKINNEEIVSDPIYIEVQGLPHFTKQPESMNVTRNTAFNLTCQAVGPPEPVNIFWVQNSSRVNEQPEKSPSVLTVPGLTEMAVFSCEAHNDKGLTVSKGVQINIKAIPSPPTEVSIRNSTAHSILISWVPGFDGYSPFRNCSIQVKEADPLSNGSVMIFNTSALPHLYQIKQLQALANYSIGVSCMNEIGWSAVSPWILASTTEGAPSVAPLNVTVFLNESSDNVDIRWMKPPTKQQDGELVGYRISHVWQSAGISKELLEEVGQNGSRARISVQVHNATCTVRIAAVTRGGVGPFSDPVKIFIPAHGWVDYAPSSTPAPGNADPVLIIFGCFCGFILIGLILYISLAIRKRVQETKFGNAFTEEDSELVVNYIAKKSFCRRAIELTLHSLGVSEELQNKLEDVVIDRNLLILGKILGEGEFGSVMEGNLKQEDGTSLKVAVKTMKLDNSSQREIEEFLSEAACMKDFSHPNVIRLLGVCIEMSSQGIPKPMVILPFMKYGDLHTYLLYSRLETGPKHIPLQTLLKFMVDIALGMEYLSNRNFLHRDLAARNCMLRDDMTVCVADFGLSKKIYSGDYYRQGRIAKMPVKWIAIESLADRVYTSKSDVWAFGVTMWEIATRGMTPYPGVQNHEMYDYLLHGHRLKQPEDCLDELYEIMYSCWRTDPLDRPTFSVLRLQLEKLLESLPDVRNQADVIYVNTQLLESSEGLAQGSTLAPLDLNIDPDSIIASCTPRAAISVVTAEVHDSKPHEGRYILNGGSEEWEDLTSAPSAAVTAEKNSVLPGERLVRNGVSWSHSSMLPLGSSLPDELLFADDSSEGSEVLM
Procedure: Assay 6: Test for Inhibitory Activities of the Compounds of the Present Invention on the Cell pMer
(§1) H1299 is a non-small cell lung cancer cell.
(§2) Test substances: the compounds of the present invention, wherein the structures thereof were as described above.
Test equipment: protein electrophoresis apparatus (manufactured by Bio Rad), transfer unit (manufactured by Bio Rad), exposure unit (manufactured by Tanon), CO2 cell incubator (manufactured by Thermo).
(§3) The H1299 cells were inoculated in a 6-well plate (containing 10% FBS 1640 medium, 5×10^5 cells per well), and adherent cells were cultivated at 37° C. in a 5% CO2 condition for 18 hours. The cells were starved overnight. Different concentrations of compounds were added. The final compound concentrations were 0.35, 1.1, 3.3 and 10 nM, and the final DMSO content was 1‰. The negative control wells contained the medium containing 1‰ DMSO. After incubating at 37° C. in a 5% CO2 condition for 60 minutes, Human MerMab (R&D, final concentration 200 ng/mL) was added to each well. After further incubating for 60 minutes, the cell total protein was extracted for Western Blot and the IC50 values were calculated using GraphPad 5.0 software. The inhibitory activity of the compound on the cell pMer was examined.

H1299 cell pAxl = target: T2, H1299 cell pAxl (Homo sapiens, UniProt P30530); experiment: Inhibitory activity on the cell pAxl (Western Blot); assay type: cell-based; settings: H1299 cells, compound 1.1, 3.3, 10, 30 nM, hGAS6 200 ng/mL
T2 construct: endogenous in cells; host or cells: H1299
T2 sequence (P30530 26-894): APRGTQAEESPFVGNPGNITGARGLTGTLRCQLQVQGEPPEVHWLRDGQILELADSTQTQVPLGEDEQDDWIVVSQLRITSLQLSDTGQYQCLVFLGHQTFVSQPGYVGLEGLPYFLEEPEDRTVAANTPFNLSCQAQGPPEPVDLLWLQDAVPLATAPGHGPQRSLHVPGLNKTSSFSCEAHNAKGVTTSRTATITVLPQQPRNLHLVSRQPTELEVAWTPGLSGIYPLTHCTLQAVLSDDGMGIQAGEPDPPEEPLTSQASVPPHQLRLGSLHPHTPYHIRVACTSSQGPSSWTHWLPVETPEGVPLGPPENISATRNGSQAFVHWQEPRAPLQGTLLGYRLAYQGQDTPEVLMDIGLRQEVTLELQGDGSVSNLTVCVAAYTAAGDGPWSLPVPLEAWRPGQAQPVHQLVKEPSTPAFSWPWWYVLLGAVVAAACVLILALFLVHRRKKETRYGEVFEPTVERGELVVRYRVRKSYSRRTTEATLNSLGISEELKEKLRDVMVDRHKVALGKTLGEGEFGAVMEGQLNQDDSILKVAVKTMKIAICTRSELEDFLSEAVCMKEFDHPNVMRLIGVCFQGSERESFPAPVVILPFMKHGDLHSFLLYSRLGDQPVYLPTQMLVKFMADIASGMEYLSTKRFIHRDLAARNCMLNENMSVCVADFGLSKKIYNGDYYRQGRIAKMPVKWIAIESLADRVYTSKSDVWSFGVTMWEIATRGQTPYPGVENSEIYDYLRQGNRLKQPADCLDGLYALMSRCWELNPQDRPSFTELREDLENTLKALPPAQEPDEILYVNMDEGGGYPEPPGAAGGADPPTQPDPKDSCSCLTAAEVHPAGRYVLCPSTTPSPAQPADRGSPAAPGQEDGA
Procedure: Assay 5: Test for Inhibitory Activities of the Compounds of the Present Invention on the Cell pAxl
as §1, §2
Test equipment: protein electrophoresis apparatus (manufactured by Bio Rad), transfer unit (manufactured by Bio Rad), exposure unit (manufactured by Tanon), CO2, cell incubator (manufactured by Thermo).
as §3, with “were” for “were 0.35,”, “1.1, 3.3, 10,” for “1.1, 3.3”, “and 30” for “and 10”, “minutes, hGAS6” for “minutes, Human MerMab”, “the […]” for “the IC50”, “cell pAxl” for “cell pMer”

IC50 (H1299 cell pMer) | IC50 (H1299 cell pAxl) | SMILES
1.1 to 3.3 nM | < 1.1 nM | COc1cc2nccc(Oc3ccc(NC(=O)c4cn(C5CC5)cc(-c5ccc(F)cc5)c4=O)nc3)c2cc1OC [Compound 30, N-(5-((6,7-dimethoxyquinolin-4-yl)oxy)pyridin-2-yl)-1-cyclopropyl-4-oxo-5-para-fluorophenyl-1,4-hydropyridin-3-carboxamide]
< 1.1 nM | 1.1 to 3.3 nM | COc1cc2nccc(Oc3ccc(NC(=O)c4cn(C5CC5)nc(-c5ccc(F)cc5)c4=O)nc3)c2cc1OC [Compound 42, 2-cyclopropyl-N-(5--((6,7-dimethoxyquinolin-4-yl)oxy)pyridin-2-yl)-6-(4-fluorophenyl)-5-oxo-2,5-dihydropyridazine-4-carboxamide]
< 0.35 nM | < 1.1 nM | COc1cc2nccc(Oc3ccc(NC(=O)c4nn(C5CC5)cc(-c5ccc(F)cc5)c4=O)nc3)c2cc1OC [Compound 31]
< 0.35 nM | < 1.1 nM | COc1cc2nccc(Oc3ccc(NC(=O)c4nn(C(C)C)cc(-c5ccc(F)cc5)c4=O)nc3)c2cc1OC [Compound 15, N-(5-((6,7-dimethoxyquinolin-4-yl)oxy)pyridin-2-yl)-5-(4-fluorophenyl)-1-isopropyl-4-oxo-1,4-dihydropyridazine-3-carboxamide]
< 1.1 nM | < 1.1 nM | COc1cc2nccc(Oc3ccc(NC(=O)c4nn(C(C)C)cc(-c5ccc(F)cc5)c4=O)cn3)c2cc1OC [Compound 29, N-(6-((6,7-dimethoxyquinolin-4-yl)oxy)pyridin-3-yl)-1-isopropyl-4-oxo-5-para-fluorophenyl-1,4-dihydropyridazine-3-carboxamide]
< 3.3 nM | < 10 nM | COc1cc2nccc(Oc3ccc(NC(=O)c4cn(C(C)C)nc(-c5ccc(F)cc5)c4=O)nc3)c2cc1OC [Compound 41, N-(5-((6,7-dimethoxyquinolin-4-yl)oxy)pyridin-2-yl)-6-(4-fluorophenyl)-2-isopropyl-5-oxo-2,5-dihydropyridazine-4-carboxamide]
1.1 to 3.3 nM | < 1.1 nM | COc1cc2nccc(Oc3ncc(NC(=O)c4nn(C5CC5)cc(-c5ccc(F)cc5)c4=O)cn3)c2cc1OC [Compound 37, 1-cyclopropyl-N-(2-((6,7-dimethoxyquinolin-4-yl)oxy)pyrimidine-5-yl)-5-para-fluorophenyl-4-oxo-1,4-dihydropyridazine-3-carboxamide]
1.1 nM | < 1.1 nM | COc1cc2nccc(Oc3cnc(NC(=O)c4cn(C(C)C)cc(-c5ccc(F)cc5)c4=O)nc3)c2cc1OC [Compound 20, N-(5-((6,7-dimethoxyquinolin-4-y)oxy)pyrimidine-2-yl)-5-(4-fluorophenyl)-1-isopropyl-4-oxo-1,4-dihydropyridin-3-carboxamide]
< 1.1 nM | < 1.1 nM | COc1cc2nccc(Oc3cnc(NC(=O)c4nn(C(C)C)cc(-c5ccc(F)cc5)c4=O)nc3)c2cc1OC [Compound 16, N-(5-((6,7-dimethoxyquinolin-4-yl)oxy)pyrimidine-2-yl)-5-(4-fluorophenyl)-1-isopropyl-4-oxo-1,4-dihydropyridazine-3-carboxamide]
